Usually IC50 stands for the concentration that inhibits the measured activity by half. Lower therefore signals higher potency.

SMILES strings stand for the structures. Structures can show the parent of a compound that is named as a salt. Bounds are passed on as bounds.

For this assay, the target named is T1, human EP4 (hEP4) receptor (Homo sapiens, UniProt P35408).
T1 construct: expressed in transfected cells; host or cells: HEK-293 T cells, transient co-transfection with polyethylenimine
T1 sequence (P35408 whole entry): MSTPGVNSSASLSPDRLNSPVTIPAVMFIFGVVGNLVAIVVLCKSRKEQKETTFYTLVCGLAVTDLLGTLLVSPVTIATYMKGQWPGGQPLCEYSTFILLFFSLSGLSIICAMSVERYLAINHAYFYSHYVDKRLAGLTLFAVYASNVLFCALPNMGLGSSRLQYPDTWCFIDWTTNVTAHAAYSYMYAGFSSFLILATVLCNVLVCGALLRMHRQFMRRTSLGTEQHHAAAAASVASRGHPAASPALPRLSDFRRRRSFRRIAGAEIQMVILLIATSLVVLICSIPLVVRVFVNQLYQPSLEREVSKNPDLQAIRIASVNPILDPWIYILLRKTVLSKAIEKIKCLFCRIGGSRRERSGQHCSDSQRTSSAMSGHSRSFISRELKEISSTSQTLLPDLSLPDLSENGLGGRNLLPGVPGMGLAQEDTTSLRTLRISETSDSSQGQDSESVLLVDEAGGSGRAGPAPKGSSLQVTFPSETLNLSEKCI
As to the kind of experiment: In vitro human EP4 functional antagonist activity using BRET biosensors (cAMP EPAC biosensor, TCS2510 stimulation). The format is cell-based. The settings on record: antagonist activity vs EC60 TCS2510, hEP4 in HEK-293 T cells. On the procedure:
Examples of the present invention were tested successively for their agonist and antagonist activities on human EP4 (hEP4) receptor transiently over-expressed in HEK-293 T cells. […] The assay used to measure compound activity is based on the BRET technology. The unimolecular cAMP biosensor used to detect intracellular cAMP levels following GPCR stimulation consists of the EPAC protein fused to N- and C-terminal of Luciferase and GFP respectively.
Cell Culture and Transfection: HEK-293 T cells are maintained in Dulbecco's Modified Eagle's Medium supplemented with 10% Foetal Calf Serum, 1% Penicillin/Streptomycin at 37° C./5% CO2. Cells are co-transfected using polyethylenimine (25 kDa linear) with two DNA plasmids encoding hEP4, EPAC fused to luciferase (BRET donor) and to GFP (BRET acceptor). After transfection, cells are cultured (40,000 cells per well) for 48 h at 37° C./5% CO2.
BRET assay: Receptor activity is detected by changes in BRET signal. On the day of the assay, cells are rinsed and incubated in assay buffer (1.8 mM CaCl2, 1 mM MgCl2, 2.7 mM KCl, 137 mM NaCl, 0.4 mM NaH2PO4, 5.5 mM D-Glucose, 11.9 mM NaHCO3, 25 mM Hepes). Then, plates are equilibrated 1 h at 22° C. before adding compounds. Compounds and luciferase substrate are added to the cells using an automated device (Freedom Evo®, Tecan) and BRET readings are collected on EnVision (PerkinElmer) with specific filters (410 nm BW 80 nm, 515 nm BW 30 nm). Agonist and antagonist activities of compounds are consecutively evaluated on the same cell plate. Agonist activity is first measured after 5 min incubation with compound alone on the cells. Then, cells are stimulated by an EC60 TCS2510 concentration and luminescence is recorded for additional 10 min. EC60 TCS2510 concentration is the concentration giving 60% of the maximal TCS2510 response. Agonist or antagonist activities are evaluated in comparison to basal signals evoked by assay buffer or EC60 TCS2510 alone, respectively.
For IC50 determination, a dose-response test is performed using 10 concentrations (ranging over 4.5 logs) of each compound. Dose-response curves are fitted using the sigmoidal dose-response (variable slope) analysis in GraphPad Prism software (GraphPad Software) and IC50 of antagonist activity is calculated. Dose-response experiments are performed in duplicate, in two independent experiments. IC50 values are categorized as following: A: IC50<0.1 μM; B: IC50<1 μM.
On the technique in general: BRET reads energy transfer from a luciferase to a nearby fluorophore.
`CN(CCOc1ccc(Cl)cc1)C1(C(=O)NC2(c3ccc(C(=O)O)cc3)CC2)CCOCC1` [Example 31, 4-[1-[[4-[2-(4-Chlorophenoxy)ethyl-methyl-amino]tetrahydropyran-4-carbonyl]amino]cyclopropyl]benzoic acid, hydrochloride]: the IC50 was < 1000 nM. To `C[C@H](NC(=O)C1(c2ccc(OCCC3CCCCC3)nc2)CCCC1)c1ccc(C(=O)O)cc1` [Example 130, 4-[(1S)-1-[[1-[6-(2-Cyclohexylethoxy)-3-pyridyl]cyclopentanecarbonyl]amino]ethyl]benzoic acid] belongs < 1000 nM; to `C[C@H](NC(=O)C1(N2CC[C@@H](Oc3cccc(C(F)(F)F)c3)C2)CCC1)c1ccc(C(N)=O)cc1` [Example 171, 4-[(1S)-1-[[1-[(3R)-3-[3-(Trifluoromethyl)phenoxy]pyrrolidin-1-yl]cyclobutane-1-carbonyl]amino]ethyl]benzamide, hydrochloride], < 100 nM; to `C[C@H](NC(=O)C1(N(C)CCOc2cccc(Cl)c2)CCOC1)c1ccc(C(=O)O)cc1` (stereo partly drawn) [Example 75, 4-[(1S)-1-[[3-[2-(3-Chlorophenoxy)ethyl-methyl-amino]tetrahydrofuran-3-carbonyl]amino]ethyl]benzoic acid, hydrochloride], < 100 nM. With `C[C@H](NC(=O)C1(N2CC[C@@H](Oc3cccc(Cl)c3)C2)CCOCC1)c1ccc(C(=O)O)cc1` [Example 140, 4-[(1S)-1-[[4-[(3R)-3-(3-Chlorophenoxy)pyrrolidin-1-yl]tetrahydropyran-4-carbonyl]amino]ethyl]benzoic acid, hydrochloride] the figure was < 100 nM. With `COc1cccc(O[C@@H]2CCN(C3(C(=O)NC4(c5ccc(C(=O)O)cc5)CC4)CCOCC3)C2)c1` [Example 149, 4-[1-[[4-[(3R)-3-(3-Methoxyphenoxy)pyrrolidin-1-yl]tetrahydropyran-4-carbonyl]amino]cyclopropyl]benzoic acid, hydrochloride] the figure was < 100 nM; with `C[C@H](NC(=O)C(C)(C)N1CC[C@@H](Oc2cccc(C(F)(F)F)c2)C1)c1ccc(S(C)(=N)=O)cc1` (stereo partly drawn) [Example 205, 2-Methyl-N-((1S)-1-(4-(S-methylsulfonimidoyl)phenyl)ethyl)-2-((R)-3-(3-(trifluoromethyl)phenoxy)pyrrolidin-1-yl)propanamide, hydrochloride], < 100 nM.

For `O=C(O)c1ccc(C2(NC(=O)C3(NCCOc4ccccc4)CCOCC3)CC2)cc1` [Example 24, 4-[1-[[4-(2-Phenoxyethylamino)tetrahydropyran-4-carbonyl]amino]cyclopropyl]benzoic acid, hydrochloride], the IC50 is < 1000 nM. With `C[C@H](NC(=O)C1(N2CC[C@@H](Oc3cccc(Cl)c3)C2)CCCCC1)c1ccc(C(=O)O)cc1` [Example 155, 4-[(1S)-1-[[1-[(3R)-3-(3-Chlorophenoxy)pyrrolidin-1-yl]cyclohexane-1-carbonyl]amino]ethyl]benzoic acid, hydrochloride] the figure was < 100 nM.

For `C[C@H](NC(=O)C1(N2CC[C@@H](Oc3cccc(C(F)(F)F)c3)C2)CCOCC1)c1ccccc1Cl` [Example 192, N—((S)-1-(2-Chlorophenyl)ethyl)-4-((R)-3-(3-(trifluoromethyl)phenoxy)pyrrolidin-1-yl)tetrahydro-2H-pyran-4-carboxamide, hydrochloride], the IC50 was < 1000 nM. Regarding `C[C@H](NC(=O)C1(c2ccc(OCCC3CCCCC3)cn2)CCOCC1)c1ccc(C(=O)O)cc1` [Example 120, 4-[(1S)-1-[[4-[5-(2-Cyclohexylethoxy)-2-pyridyl]tetrahydropyran-4-carbonyl]amino]ethyl]benzoic acid], the IC50 is < 1000 nM. To `C[C@H](NC(=O)C1(c2ccc(OCCC3CCCCC3)cc2)CCCC1)c1ccc(C(=O)O)cc1` [Example 110, 4-[(1S)-1-[[1-[4-(2-Cyclohexylethoxy)phenyl]cyclopentanecarbonyl]amino]ethyl]benzoic acid] belongs < 100 nM; to `O=C(O)c1ccc(C2(NC(=O)C3(N4CCC[C@@H](Oc5cccc(Cl)c5)C4)CCOCC3)CC2)cc1` [Example 137, 4-[1-[[4-[(3R)-3-(3-Chlorophenoxy)-1-piperidyl]tetrahydropyran-4-carbonyl]amino]cyclopropyl]benzoic acid, hydrochloride], < 100 nM. To `C[C@H](NC(=O)C(C)(C)N1CC[C@@H](COc2cccc(Cl)c2)C1)c1ccc(C(=O)O)cc1` [Example 209, 4-((S)-1-(2-((R)-3-((3-Chlorophenoxy)methyl)pyrrolidin-1-yl)-2-methylpropanamido)ethyl)benzoic acid] belongs < 100 nM; to `C[C@H](NC(=O)C(C)(C)N1CC[C@@H](Oc2cccc(Cl)c2)C1)c1ccc(C(N)=O)cc1` [Example 174, hydrochloride], < 100 nM; to `C[C@H](NC(=O)C1(N2CC[C@@H](Oc3cccc(C(F)(F)F)c3)C2)CCOCC1)c1ccc(-c2ccn[nH]2)cc1` [Example 177, N—((S)-1-(4-(1H-Pyrazol-5-yl)phenyl)ethyl)-4-((R)-3-(3-(trifluoromethyl)phenoxy)pyrrolidin-1-yl)tetrahydro-2H-pyran-4-carboxamide, hydrochloride], < 100 nM.

Turning to `CN(CCOc1ccccc1OC(F)(F)F)C1(C(=O)NC2(c3ccc(C(=O)O)cc3)CC2)CCOCC1` [Example 44, 4-[1-[[4-[2-(2-Trifluoromethoxyphenoxy)ethyl-methyl-amino]tetrahydropyran-4-carbonyl]amino]cyclopropyl]benzoic acid, hydrochloride], the IC50 was < 100 nM. To `C[C@H](NC(=O)C1(N2CC[C@@H](Oc3cccc(C(F)(F)F)c3)C2)CCOCC1)c1ccc(S(N)(=O)=O)cc1` [Example 178, N—((S)-1-(4-Sulfamoylphenyl)ethyl)-4-((R)-3-(3-(trifluoromethyl)phenoxy)pyrrolidin-1-yl)tetrahydro-2H-pyran-4-carboxamide, hydrochloride] belongs < 100 nM; to `C[C@H](NC(=O)C1(N2CC[C@@H](Oc3cccc(C(F)(F)F)c3)C2)CCOCC1)c1ccc(O)cc1` [Example 181, N—((S)-1-(4-Hydroxyphenyl)ethyl)-4-((R)-3-(3-(trifluoromethyl)phenoxy)pyrrolidin-1-yl)tetrahydro-2H-pyran-4-carboxamide, hydrochloride], < 1000 nM.

On to `C[C@H](NC(=O)C(C)(C)N1CC[C@@H](Oc2cccc(C(F)(F)F)c2)C1)c1ccc(S(N)(=O)=O)cc1` [Example 203, 2-Methyl-N—((S)-1-(4-sulfamoylphenyl)ethyl)-2-((R)-3-(3-(trifluoromethyl)phenoxy)pyrrolidin-1-yl)propanamide, hydrochloride], for which the IC50 is < 1000 nM.

As to `C[C@H](NC(=O)C1(NCCOc2ccc(Cl)c(Cl)c2)CCOCC1)c1ccc(C(=O)O)cc1` [Example 17, 4-[(1S)-1-[[4-[2-(3,4-Dichlorophenoxy)ethylamino]tetrahydropyran-4-carbonyl]amino]ethyl]benzoic acid, hydrochloride], the 50% inhibitory concentration (IC50) was < 1000 nM. Take `CCC(CC)(C(=O)N[C@@H](C)c1ccc(C(=O)O)cc1)N1CC[C@@H](Oc2cccc(Cl)c2)C1` [Example 210, 4-[(1S)-1-[[2-[(3R)-3-(3-Chlorophenoxy)pyrrolidin-1-yl]-2-ethylbutane-carbonyl]amino]ethyl]benzoic acid, hydrochloride]: the half-maximal inhibitory concentration (IC50) is < 100 nM. With `C[C@H](NC(=O)C1(c2cccc(OCC3CCCCC3)n2)CCOCC1)c1ccc(C(=O)O)cc1` [Example 115, 4-[(1S)-1-[[4-[6-(Cyclohexylmethoxy)-2-pyridyl]tetrahydropyran-4-carbonyl]amino]ethyl]benzoic acid] the figure was < 1000 nM; with `COc1cccc([C@H](C)NC(=O)C2(N3CC[C@@H](Oc4cccc(C(F)(F)F)c4)C3)CCOCC2)c1` [Example 196, N—((S)-1-(3-Methoxyphenyl)ethyl)-4-((R)-3-(3-(trifluoromethyl)phenoxy)pyrrolidin-1-yl)tetrahydro-2H-pyran-4-carboxamide, hydrochloride], < 1000 nM. With `C[C@H](NC(=O)C1(c2ccc(OCC3CCCCC3)cn2)CCCC1)c1ccc(C(=O)O)cc1` [Example 127, 4-[(1S)-1-[[1-[5-(Cyclohexylmethoxy)-2-pyridyl]cyclopentanecarbonyl]amino]ethyl]benzoic acid], the IC50 is < 1000 nM.

The record behind these values is patent US12527779B2, “Prostaglandin E2 (PGE2) EP4 receptor antagonists” (Domain Therapeutics, priority 2019, dated 2026).
